Laboratory results reported in the supplement of paper PMC10307832.

How the values were obtained:
Test in all cases: relative viability (nuclei count vs DMSO), 5 days (fraction); higher = more cells survive
Afatinib + Bortezomib = compound: CN(C)C/C=C/C(=O)Nc1cc2c(Nc3ccc(F)c(Cl)c3)ncnc2cc1O[C@H]1CCOC1 [Afatinib] + CC(C)C[C@H](NC(=O)[C@H](Cc1ccccc1)NC(=O)c1cnccn1)B(O)O [Bortezomib] (partner 0.002 µM)
Outline: (§1)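 One day after seeding in 1536-well plates, lung cancer cell lines were dosed by pin tool. Dosing was either single-drug or a fixed anchor-drug dose plus five library-drug doses (not always all listed) in √10 steps. After 5 days, nuclei were stained in one fix-and-stain step and counted on 4× images, and relative viability is the nuclei count of treated wells over that of vehicle wells, given as the median of duplicate plates.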

Afatinib + Trametinib = compound: CN(C)C/C=C/C(=O)Nc1cc2c(Nc3ccc(F)c(Cl)c3)ncnc2cc1O[C@H]1CCOC1 [Afatinib] + CC(=O)Nc1cccc(-n2c(=O)n(C3CC3)c(=O)c3c(Nc4ccc(I)cc4F)n(C)c(=O)c(C)c32)c1 [Trametinib] (partner 0.02 µM)
Outline: as §1

Afatinib + Olaparib = compound: CN(C)C/C=C/C(=O)Nc1cc2c(Nc3ccc(F)c(Cl)c3)ncnc2cc1O[C@H]1CCOC1 [Afatinib] + O=C(c1cc(Cc2n[nH]c(=O)c3ccccc23)ccc1F)N1CCN(C(=O)C2CC2)CC1 [Olaparib] (partner 8 µM)
Outline: as §1

Afatinib + Pictilisib = compound: CN(C)C/C=C/C(=O)Nc1cc2c(Nc3ccc(F)c(Cl)c3)ncnc2cc1O[C@H]1CCOC1 [Afatinib] + CS(=O)(=O)N1CCN(Cc2cc3nc(-c4cccc5[nH]ncc45)nc(N4CCOCC4)c3s2)CC1 [Pictilisib] (partner 1 µM)
Outline: as §1

Row | Cell Line | relative viability (Afatinib + Bortezomib; first compound 0.005 µM) | relative viability (Afatinib + Bortezomib; first compound 0.01581 µM) | relative viability (Afatinib + Bortezomib; first compound 0.05 µM) | relative viability (Afatinib + Bortezomib; first compound 0.1581 µM) | relative viability (Afatinib + Bortezomib; first compound 0.5 µM) | relative viability (Afatinib + Trametinib; first compound 0.005 µM) | relative viability (Afatinib + Trametinib; first compound 0.01581 µM) | relative viability (Afatinib + Trametinib; first compound 0.05 µM) | relative viability (Afatinib + Trametinib; first compound 0.1581 µM) | relative viability (Afatinib + Trametinib; first compound 0.5 µM) | relative viability (Afatinib + Olaparib; first compound 0.005 µM) | relative viability (Afatinib + Olaparib; first compound 0.01581 µM) | relative viability (Afatinib + Olaparib; first compound 0.05 µM) | relative viability (Afatinib + Olaparib; first compound 0.1581 µM) | relative viability (Afatinib + Olaparib; first compound 0.5 µM) | relative viability (Afatinib + Pictilisib; first compound 0.005 µM) | relative viability (Afatinib + Pictilisib; first compound 0.01581 µM) | relative viability (Afatinib + Pictilisib; first compound 0.05 µM) | relative viability (Afatinib + Pictilisib; first compound 0.1581 µM) | relative viability (Afatinib + Pictilisib; first compound 0.5 µM)
1 | NCI-H838 | 0.869 | 0.958 | 1.01 | 0.667 | 1.05 | 0.585 | 0.434 | 0.523 | 0.525 | 0.685 | 0.803 | 0.723 | 0.819 | 0.757 | 0.815 | 0.441 | 0.462 | 0.453 | 0.497 | 0.524
2 | NCI-H1355 | 1.26 | 1.16 | 1.29 | 1.03 | 1.02 | 0.366 | 0.428 | 0.381 | 0.306 | 0.341 | 0.723 | 0.768 | 0.713 | 0.716 | 0.67 | 0.39 | 0.467 | 0.482 | 0.36 | 0.21
3 | NCI-H1437 | 0.941 | 0.52 | 0.446 | 0.496 | 0.554 | 0.434 | 0.413 | 0.472 | 0.414 | 0.434 | 0.657 | 0.64 | 0.642 | 0.596 | 0.569 | 0.489 | 0.407 | 0.378 | 0.468 | 0.471
4 | NCI-H1650 | 0.222 |  | 0.204 | 0.241 | 0.207 | 0.431 | 0.357 | 0.475 | 0.484 | 0.365 | 0.784 | 0.708 | 0.804 | 0.712 | 0.547 | 0.589 |  | 0.553 | 0.487 | 0.545
5 | NCI-H1651 | 1.08 | 0.912 | 0.926 | 1.02 | 0.884 | 0.856 | 0.862 | 0.838 | 0.808 | 0.785 | 0.173 | 0.186 | 0.179 | 0.17 | 0.21 | 0.58 | 0.533 | 0.546 | 0.553 | 0.449
6 | NCI-H1666 | 0.712 | 0.758 | 0.567 |  | 0.8 | 0.673 | 0.648 | 0.776 | 0.815 | 0.791 | 0.78 | 0.792 | 0.75 | 0.712 | 0.681 | 0.329 | 0.252 | 0.344 |  | 0.345
7 | NCI-H1734 | 1.08 | 0.816 | 0.895 | 0.921 | 0.922 | 0.684 | 0.671 | 0.715 | 0.683 | 0.692 | 0.666 | 0.569 | 0.621 | 0.58 | 0.551 | 0.479 | 0.467 | 0.486 | 0.438 | 0.416
8 | NCI-H1755 | 0.995 | 0.925 | 0.927 | 0.934 | 1.03 | 0.767 | 0.792 | 0.807 | 0.679 | 0.792 | 0.906 | 0.857 | 0.921 | 0.864 | 0.813 | 0.433 | 0.435 | 0.41 | 0.368 | 0.358
